{
  "source": "patent US20110065672A1",
  "about": "“BISPHOSPHONATE-PROSTATIC ACID PHOSPHATASE INHIBITOR CONJUGATES TO TREAT PROSTATE CANCER BONE METASTASIS” (MOUNT SINAI SCHOOL OF MEDICINE OF NEW YORK UNIVERSITY, priority 2009, published 2011)",
  "key": {"[1]": {"target": "T1, prostatic acid phosphatase (PAP) (Homo sapiens, UniProt P15309)", "T1 construct": "endogenous in cells; host or cells: VCaP (human prostate cancer cell line); in A3 also MC3T3 pre-osteoblasts, alone or in co-culture", "T1 sequence (P15309 33-386)": "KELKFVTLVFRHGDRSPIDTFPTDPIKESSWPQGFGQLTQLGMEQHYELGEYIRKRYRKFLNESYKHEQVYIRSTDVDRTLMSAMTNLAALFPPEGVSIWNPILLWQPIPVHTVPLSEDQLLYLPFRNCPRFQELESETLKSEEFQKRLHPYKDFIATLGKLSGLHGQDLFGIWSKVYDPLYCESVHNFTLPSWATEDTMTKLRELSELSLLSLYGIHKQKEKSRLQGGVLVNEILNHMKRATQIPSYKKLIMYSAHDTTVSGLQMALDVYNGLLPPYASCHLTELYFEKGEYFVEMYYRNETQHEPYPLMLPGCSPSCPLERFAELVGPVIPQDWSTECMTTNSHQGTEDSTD", "assay": "PAP secretion in VCaP cell culture with conjugates, ELISA", "type": "cell-based", "conditions": "overnight; for inhibition of PAP secretion: 0.1 mM or 1.0 mM in VCaP cell culture medium", "protocol": "Either the glyceric acid conjugate (i.e., N-Alendronyl-D-Glyceramide) (example 1, 0.1 mM or 1.0 mM) or the tartaric acid conjugate (i.e., N-Alendronyl-L-Tartaric Acid Monamide) (example 2, 0.1 mM or 1.0 mM) was added to VCaP cell culture medium, and incubated overnight. PAP secretion was measured using an ELISA assay."}, "PAP": {"target": "T2, PAP (Homo sapiens, UniProt P15309)", "T2 sequence (P15309 33-386)": "T1 sequence (P15309 33-386)", "conditions": "see U.S. Pat. No. 5,763,490; cited from earlier work"}, "RAW (osteoclast) cells": {"tested_on": "RAW (osteoclast) cells", "assay": "Osteoclast bone-resorbing activity, pit formation on osteologic discs", "type": "cell-based", "conditions": "tartrate 20 μM, 7 days, RANKL and MCSF", "protocol": "The effect of PAP on osteoclast bone-resorbing activity was measured by assaying pit formation when osteoclasts were cultured on bone matrix (osteologic discs). RAW (osteoclast) cells (2×10^4 cells), PC3 (PAP^−) cells (2×10^4 cells), and VCaP (PAP^+) cells (3×10^4 cells) were plated, alone or in combination, on calcium hydroxyapatite-coated osteologic discs in DMEM medium with 10% FBS for 7 days+/−tartrate (20 μM). All cultures were treated with RANKL ([…]) and MCSF ([…]). On day 7, cells were washed and discs stained with von Kossa to visualize the calcium matrix and pits (which indicate bone resorption by the RAW osteoclast cells)."}, "[2]": {"tested_on": "bone alkaline phosphatase (ALP)", "assay": "Secretion of bone alkaline phosphatase (ALP), ELISA", "type": "cell-based", "conditions": "tartrate 20 μM, 7 days", "protocol": "(§1) The human prostate cancer cell line VCaP (originally derived from a vertebral metastases) and the pre-osteoblast cell line MC3T3, were used to for in vitro studies with tartrate. Each cell culture was grown in serum free medium either in single line or co-culture, and treated with or without tartrate (20 μM) for 7 days. Cell numbers were counted by a hemacytometer and the secretion of PAP and bone alkaline phosphatase (ALP) was measured using ELISA.\nSecretion of bone alkaline phosphatase (ALP) by pre-osteoblast cells is correlated with pre-osteoblast differentiation into mature osteoblasts cells. Accordingly, ALP secretion was measured to indirectly determine whether the inhibition of PAP secretion by tartrate also served to attenuate differentiation events. […] This effect was not seen in the single line MC3T3 and VCaP cell cultures."}, "MC3T3 cells": {"tested_on": "MC3T3 cells", "assay": "Growth of MC3T3 pre-osteoblast cells, single line or co-culture, counted by hemacytometer", "type": "cell-based", "conditions": "tartrate 20 μM, 7 days, serum free medium", "protocol": "as §1"}, "VCaP cells": {"tested_on": "VCaP cells", "assay": "Growth of VCaP prostate cancer cells, single line or co-culture, counted by hemacytometer", "type": "cell-based, human", "conditions": "tartrate 20 μM, 7 days, serum free medium", "protocol": "as §1"}, "[3]": {"tested_on": "prostatic acid phosphatase (PAP)", "assay": "Secretion of PAP from MC3T3 and VCaP single line and co-cultures, ELISA", "type": "cell-based, human", "conditions": "tartrate 20 μM, 7 days, MC3T3 cells (very low PAP levels)", "protocol": "as §1"}, "[4]": {"target": "T1, prostatic acid phosphatase (PAP)", "assay": "Secretion of PAP from MC3T3 and VCaP single line and co-cultures, ELISA", "type": "cell-based", "conditions": "tartrate 20 μM, 7 days", "protocol": "as §1"}, "RAW cells [5]": {"tested_on": "RAW cells", "assay": "RAW cell differentiation, mean number of multinucleated cells", "type": "cell-based", "conditions": "tartrate (2004) for 2 days", "protocol": "(§2) In order to determine the effects of prostatic acid phosphatase (PAP) on osteoclast differentiation and activity, a series of co-culture experiments were performed in which pre-osteoclast cells (RAW cells) were co-cultured with either PAP-positive (PAP^+), VCaP cells or PAP-negative (PAP^−) (PC3) human prostate cancer (PCa) cells. RAW cells were counted in a hemacytometer on day 5.\n(§3) VCaP (PAP^+) and PC3 (PAP^−) cells (5×10^4 each) were seeded on inserts in RPMI or DMEM medium with 10% FBS. Pre-osteoclast, PRAW cells (5×10^4) were plated on the bottom in 12 well plates. After 2 days, medium was changed to serum-free DMEM with 0.1% BSA+/− tartrate (2004) for 2 days. Mean number of multinucleated cells (hallmark of osteoclast differentiation) was determined on day 5 by multiple field counts in 200× objective view."}, "RAW cells [6]": {"tested_on": "RAW cells", "assay": "RAW pre-osteoclast cell growth in co-culture experiments, hemacytometer", "type": "cell-based", "conditions": "tartrate (2004) for 2 days", "protocol": "as §2, §3"}, "bone acid phosphatase": {"target": "T3, bone acid phosphatase (Homo sapiens, UniProt P13686)", "T3 sequence (P13686 22-325)": "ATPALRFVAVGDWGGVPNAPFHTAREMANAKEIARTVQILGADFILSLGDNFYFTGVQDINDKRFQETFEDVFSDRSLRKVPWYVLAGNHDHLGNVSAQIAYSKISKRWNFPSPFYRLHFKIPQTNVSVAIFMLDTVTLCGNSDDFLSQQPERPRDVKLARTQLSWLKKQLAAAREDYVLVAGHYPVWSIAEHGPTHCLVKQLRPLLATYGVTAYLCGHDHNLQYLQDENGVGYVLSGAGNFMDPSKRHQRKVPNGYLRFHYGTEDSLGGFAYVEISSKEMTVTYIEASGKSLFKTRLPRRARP", "conditions": "cited from earlier work"}},
  "data": [
    {"compound": "O=C(NCCCC(O)(P(=O)(O)O)P(=O)(O)O)[C@H](O)CO", "note": "[example 1, N-Alendronyl-D-Glyceramide]", "values": [
      {"measurement": "inhibition of PAP secretion", "setting": "[1]", "value": "significantly inhibited"},
      {"measurement": "effectiveness as a PAP inhibitor compared with tartrate alone", "setting": "[1]; VCaP cell culture medium", "value": "as effective as tartrate alone"}
    ]},
    {"compound": "O=C(O)C(O)[C@H](O)C(=O)NCCCC(O)(P(=O)(O)O)P(=O)(O)O", "note": "(stereo partly drawn) [example 2, N-Alendronyl-L-Tartaric Acid Monamide]", "values": [
      {"measurement": "inhibition of PAP secretion", "setting": "[1]", "value": "inhibit PAP secretion"}
    ]},
    {"compound": "O=C(O)[C@H](O)[C@@H](O)C(=O)O", "note": "[tartrate, L-tartrate]", "values": [
      {"measurement": "inhibition of PAP", "setting": "PAP", "value": "inhibited"},
      {"measurement": "decrease of pit formation, RAW cells co-cultured with VCaP", "setting": "RAW (osteoclast) cells", "value": 50, "unit": "%"},
      {"measurement": "effect on number of pits, RAW cells co-cultured with PC3 cells", "setting": "RAW (osteoclast) cells", "value": "no significant effect"},
      {"measurement": "bone alkaline phosphatase secretion by MC3T3 cells in co-culture with VCaP cells", "setting": "[2]; co-culture with VCaP", "value": "significantly inhibited"},
      {"measurement": "bone alkaline phosphatase secretion, single line MC3T3 cell culture", "setting": "[2]; single line MC3T3", "value": "not seen"},
      {"measurement": "bone alkaline phosphatase secretion, single line VCaP cell culture", "setting": "[2]; single line VCaP", "value": "not seen"},
      {"measurement": "effect on growth of MC3T3 cells co-cultured with VCaP cells", "setting": "MC3T3 cells; co-culture with VCaP, p<0.01", "value": "significantly inhibited"},
      {"measurement": "effect on growth of MC3T3 single line cell culture", "setting": "MC3T3 cells; single line", "value": "did not have a significant effect"},
      {"measurement": "effect on VCaP cell growth when co-cultured with MC3T3 cells", "setting": "VCaP cells; co-culture with MC3T3", "value": "did not have a significant effect"},
      {"measurement": "effect on growth of VCaP single line cell culture", "setting": "VCaP cells; single line", "value": "did not have a significant effect"},
      {"measurement": "PAP secretion by MC3T3 cells", "setting": "[3]", "value": "did not inhibit"},
      {"measurement": "prostatic acid phosphatase secretion by VCaP cells grown alone", "setting": "[4]; VCaP alone", "value": "significantly inhibited"},
      {"measurement": "prostatic acid phosphatase secretion by VCaP cells in co-culture with MC3T3 cells", "setting": "[4]; co-culture with MC3T3", "value": "significantly inhibited"},
      {"measurement": "effect on differentiation of RAW cells alone", "setting": "RAW cells [5]; multinucleated cells on day 5, RAW alone", "value": "did not have a significant effect"},
      {"measurement": "effect on differentiation of RAW cells co-cultured with PC3 cells", "setting": "RAW cells [5]; multinucleated cells on day 5, co-culture with PC3", "value": "did not have a significant effect"},
      {"measurement": "effect on RAW cell differentiation when co-cultured with VCaP", "setting": "RAW cells [5]; multinucleated cells on day 5, co-culture with VCaP, p<0.01", "value": "significantly inhibited"},
      {"measurement": "effect on growth of RAW cells co-cultured with PC3 cells", "setting": "RAW cells [6]; counted day 5, co-culture with PC3 (PAP-)", "value": "did not have a significant effect"},
      {"measurement": "effect on growth of RAW cells co-cultured with VCaP cells", "setting": "RAW cells [6]; counted day 5, co-culture with VCaP (PAP+), p<0.01", "value": "significantly inhibited"},
      {"measurement": "effect on growth of RAW cells alone", "setting": "RAW cells [6]; serum-free DMEM with 0.1% BSA, counted day 5, RAW alone", "value": "did not have a significant effect"},
      {"measurement": "inhibition of bone acid phosphatase", "setting": "bone acid phosphatase", "value": "is not"}
    ]}
  ]
}
